Experimental findings from patent US20260265408A1, “GD2-SPECIFIC CHIMERIC ANTIGEN RECEPTOR EFFECTOR CELLS FOR USE IN THE TREATMENT OF SOLID TUMORS, POSSIBLY IN COMBINATION WITH ENHANCER OF ZESTE HOMOLOG 2 (EZH2) INHIBITORS” (priority 2023, published 2026) are described below.

The data set relates to CAR.GD2 T-cells. Briefly: In vivo activation of iC9 suicide gene by AP1903 in PDX-MB mouse model. Details: species or system NSG mice. As for the experimental part: The in vivo activity of AP1903 on apoptosis induction of CAR. GD2 T-cells was assessed in in vivo PDX-MB mouse model. Briefly, 2×10^5 Med-411FH mCherry/Luciferase were orthotopic infused in 5-week-old female NSG mice. After tumor engraftment, confirmed by bioluminescence monitoring, mice received an intravenous injection (i.v.) of 10×10^6 of NT T or genetically modified CAR.GD2 T cells. Ten days later, when the presence of circulating T cells was confirmed by flow cytometric analysis, mice were randomly divided in four groups and treated or not treated by intraperitoneal (i.p.) infusion with AP1903 (100 mg/mouse) on day +11, day +12 and day +13 (NT-T no AP1903, NT-T AP1903+ or CAR. GD2-T no AP1903, CAR.GD2-T AP1903+). The residual of effector cells was evaluated 24 hours after the last AP1903 treatment by flow cytometric analysis in the peripheral blood or histologic and IHC analysis in brain/tumor tissue. Animals were sacrificed and brains were fixed in 4% formaldehyde in 0.1 mol/L phosphate buffer (pH 7.2) and paraffin embedded. AP1903 (cat. No. 6130, Biotechne-TOCRIS).
The histopathologic analysis was performed as previously reported^74. Briefly, after Haematoxylin/Eosin staining for IHC analysis, the sections were cut to 2.5 μm thick, dewaxed, and rehydrated. Epitope retrieval was performed by boiling the slides with EDTA (pH 9). Endogenous peroxidase was blocked with 3% hydrogen peroxide for 10 minutes followed by another blocking step in 5% serum albumin (BSA) for 1-hour RT. The sections were then incubated with anti-CD3 antibody (1:100, DAKO) or anti-Ki67 (1:100, Abcam) at 4° C. overnight. Secondary biotinylated antibody (K8024, Dako, Carpinteria, USA) and the peroxidase DAB kit (Dako, Carpinteria, USA) were used to reveal the primary antibodies. Slides were then counterstained with hematoxylin, dehydrated with a series of alcohol solutions (70%-100%), followed by three changes of Diasolv and mounted with Diamount (Diapath). Analysis was performed using standard microscopy.

As for `CC[C@H](C(=O)N1CCCC[C@H]1C(=O)O[C@H](CCc1ccc(OC)c(OC)c1)c1cccc(OCC(=O)NCCNC(=O)COc2cccc([C@@H](CCc3ccc(OC)c(OC)c3)OC(=O)[C@@H]3CCCCN3C(=O)[C@@H](CC)c3cc(OC)c(OC)c(OC)c3)c2)c1)c1cc(OC)c(OC)c(OC)c1` [AP1903], the “circulating CAR.GD2-T cells” value (AP1903 i.p. 100 mg/mouse on three consecutive days, compared to untreated) was “significant reduction”. For the same compound, the “tumor-infiltrating CD3+ cells (anti-hCD3 IHC on cerebella slides)” value (AP1903 i.p. on three consecutive days) is listed as “eliminate tumor-infiltrating CD3+ cells”. The “crossing of the BBB” value (systemic (i.p.) administration) is “cross the BBB”.
